Activity calls are given as the source filed them. No cut-off for these calls is given here.
Experiments:
[1] = test system: Mahlavu; test: Induction of cell cycle arrest in human Mahlavu cells assessed as decrease in accumulation of cells in G2/M phase incubated at 0.01 to 0.1 uM for 24 hrs by propidium iodide staining based muse cell analysis; type: functional; conditions: dose 0.01-0.1 µM
[2] = test system: SNU-449; test: Induction of apoptosis in human SNU-449 cells assessed as early apoptotic cells at 1.5 uM incubated for 24 hrs by Annexin-V/7-AAD staining based muse cell analyzer method (reference value: 3.95 %); type: functional
[3] = test system: SNU-475; test: Induction of apoptosis in human SNU-475 cells assessed as cleaved Caspase 9 level at 0.5 uM incubated for 24 hrs by Western blotting analysis; type: functional, cell-based
[4] = test system: Mahlavu; test: Induction of cell cycle arrest in human Mahlavu cells assessed as decrease in accumulation of cells in S phase incubated at 0.01 to 0.1 uM for 24 hrs by propidium iodide staining based muse cell analysis; type: functional; conditions: dose 0.01-0.1 µM
[5] = Inhibition of PI3K/Akt/mTOR signaling pathway in human Mahlavu cells assessed as reduction in phosphorylation of Akt at 0.001 to 0.01 uM incubated for 1 hr under hypoxia condition by Western blotting analysis; type: cell-based; conditions: dose 0.001-0.01 µM
[6] = test system: SNU-449; test: Induction of apoptosis in human SNU-449 cells assessed as necrotic cells at IC50 concentration incubated for 24 hrs in presence of Z-VAD-fmk by Annexin-V/7-AAD staining based muse cell analyzer method (reference value: 0.95 %); type: functional
[7] = test system: Mahlavu; test: Induction of autophagy in human Mahlavu cells assessed as increase in lipidation of LC3A/B II level at 0.5 uM incubated for 24 hrs in presence of chloroquine by Western blot analysis; type: functional, cell-based
[8] = test system: Hep 3B2; test: Cytotoxicity against human Hep3B cells assessed as reduction in cell viability incubated for 24 hrs under hypoxia condition by MTT assay; type: functional, cell-based
[9] = test system: SNU-449; test: Induction of apoptosis in human SNU-449 cells assessed as viable cells at 1.5 uM incubated for 24 hrs by Annexin-V/7-AAD staining based muse cell analyzer method (reference value: 90.07 %); type: functional; conditions: read-out: Activity
[10] = test system: Hep 3B2; test: Induction of cell cycle arrest in human Hep3B cells assessed as increase in accumulation of cells in G0/G1 phase incubated at 0.01 to 0.1 uM for 24 hrs by propidium iodide staining based muse cell analysis; type: functional; conditions: dose 0.01-0.1 µM
[11] = test system: Mahlavu; test: Induction of autophagy in human Mahlavu cells assessed as increased expression of LC3A/B II level incubated for 24 hrs under hypoxia condition by Western blot analysis; type: functional, cell-based; conditions: dose 0.1-0.5 µM
[12] = test system: SNU-475; test: Cytotoxicity against human SNU-475 cells assessed as reduction in cell viability at 0.5 uM incubated for 24 hrs in presence of chloroquine by MTT assay; type: functional, cell-based
[13] = test system: SNU-449; test: Induction of apoptosis in human SNU-449 cells assessed as late apoptotic cells at IC50 concentration incubated for 24 hrs in presence of Z-VAD-fmk by Annexin-V/7-AAD staining based muse cell analyzer method (reference value: 5.03 %); type: functional
[14] = test system: HepG2; test: Cytotoxicity against human HepG2 cells assessed as reduction in cell viability incubated for 48 hrs by MTT assay; type: functional, cell-based; conditions: HepG2, 48 h
[15] = Inhibition of PI3K/Akt/mTOR signaling pathway in human Hep3B cells assessed as reduction in phosphorylation of Akt incubated for 1 hr under normoxia condition by Western blotting analysis; type: cell-based; conditions: dose 0.25-1 µM
[16] = test system: Mahlavu; test: Induction of apoptosis in human Mahlavu cells assessed as cleaved PARP level at 0.5 uM incubated for 24 hrs by Western blotting analysis; type: functional, cell-based
[17] = test system: SNU-475; test: Induction of autophagy in human SNU-475 cells assessed as increased expression of LC3A/B II level incubated for 24 hrs under hypoxia condition by Western blot analysis; type: functional, cell-based; conditions: dose 0.1-0.5 µM
[18] = Inhibition of PI3K/Akt/mTOR signaling pathway in human Mahlavu cells assessed as reduction in phosphorylation of Akt at 1 to 10 nM incubated for 1 hr under hypoxia condition by Western blotting analysis; type: cell-based; conditions: dose 1-10 nM
[19] = Inhibition of PI3K/Akt/mTOR signaling pathway in human Mahlavu cells assessed as reduction in phosphorylation of Akt at 1 to 10 nM incubated for 1 hr under normoxia condition by Western blotting analysis; type: cell-based; conditions: dose 1-10 nM
[20] = test system: Mahlavu; test: Cytotoxicity against human Mahlavu cells assessed as reduction in cell viability incubated for 24 hrs under hypoxia condition by MTT assay; type: functional, cell-based
[21] = test system: Mahlavu; test: Induction of apoptosis in human Mahlavu cells incubated for 24 hrs by Annexin-V/7-AAD staining based muse cell analyzer method; type: functional; conditions: dose 0.01-0.5 µM
[22] = test system: SNU-449; test: Cytotoxicity against human SNU-449 cells assessed as reduction in cell viability incubated for 24 hrs under normoxia condition by MTT assay; type: functional, cell-based
[23] = Inhibition of PI3K/Akt/mTOR signaling pathway in human HepG2 cells assessed as reduction in phosphorylation of mTORC1 substrate S6 incubated for 1 hr under normoxia condition by Western blotting analysis; type: cell-based; conditions: dose 0.25-1 µM
[24] = test system: Mahlavu; test: Cytotoxicity against human Mahlavu cells assessed as reduction in cell viability at 0.5 uM incubated for 24 hrs in presence of 3-Methyladenine under hypoxia condition by MTT assay; type: functional, cell-based
[25] = Inhibition of PI3K/Akt/mTOR signaling pathway in human SNU-475 cells assessed as reduction in phosphorylation of mTORC1/2 incubated for 1 hr under normoxia condition by Western blotting analysis; type: cell-based; conditions: dose 0.25-1 µM
[26] = test system: SNU-475; test: Induction of autophagy in human SNU-475 cells assessed as increase in lipidation of LC3I to LC3II at 0.5 uM incubated for 24 hrs by Western blot analysis; type: functional, cell-based
[27] = test system: SNU-475; test: Cytotoxicity against human SNU-475 cells assessed as reduction in cell viability at 0.5 to 5 uM incubated for 24 hrs by MTT assay; type: functional, cell-based; conditions: dose 0.5-5 µM
[28] = test system: Hep 3B2; test: Induction of apoptosis in human Hep3B cells incubated for 24 hrs by Annexin-V/7-AAD staining based muse cell analyzer method; type: functional; conditions: dose 0.01-0.5 µM
[29] = test system: Mahlavu; test: Anti-tumor activity against human Mahlavu cells assessed as reduction of VEGF level incubated for 24 hrs under hypoxia condition by Western blot analysis; type: functional, cell-based; conditions: dose 0.01-0.1 µM
[30] = test system: Mahlavu; test: Cytotoxicity against human Mahlavu cells assessed as reduction in cell viability at 0.5 uM incubated for 24 hrs in presence of chloroquine under hypoxia condition by MTT assay; type: functional, cell-based
[31] = test system: SNU-475; test: Induction of autophagy in human SNU-475 cells assessed as upregulation of LC3A/B II level by Western blot analysis; type: functional, cell-based; conditions: dose 0.1-0.5 µM
[32] = test system: SNU-475; test: Induction of apoptosis in human SNU-475 cells assessed as cleaved Caspase 7 level at 0.5 uM incubated for 24 hrs by Western blotting analysis; type: functional, cell-based
[33] = test system: SNU-475; test: Induction of autophagy in human SNU-475 cells assessed as reduction in SQSTM1/p62 level by Western blot analysis; type: functional, cell-based; conditions: dose 0.1-0.5 µM
[34] = test system: Hep 3B2; test: Cytotoxicity against human Hep3B cells assessed as reduction in cell viability at 0.5 uM incubated for 24 hrs in presence of 3-Methyladenine under hypoxia condition by MTT assay; type: functional, cell-based
[35] = test system: Mahlavu; test: Induction of autophagy in human Mahlavu cells assessed as increase in LC3I to LC3II conversion at 0.5 uM incubated for 24 hrs under hypoxia condition by Western blot analysis; type: functional, cell-based
[36] = test system: SNU-475; test: Induction of apoptosis in human SNU-475 cells assessed as cleaved PARP level at 0.5 uM incubated for 24 hrs by Western blotting analysis; type: functional, cell-based

## COc1ccc(-c2ccc3ncc4c(c3c2)n(-c2ccc(N3CCNCC3)c(C(F)(F)F)c2)c(=O)n4C)cn1 [BGT-226 FREE BASE]
[1]
  Activity: Active
[2]
  Activity: 18.2%
[3]
  Activity: Active
[4]
  Activity: Active
[5]
  inhibition: Active
[6]
  Activity: 0.45%
[7]
  Activity: Active
[8]
  Activity: Active
[9]
  viability at 1.5 µM: 48.6%
[10]
  Activity: Active
[11]
  Activity: Dose-Dependent Effect
[12]
  Activity: Active
[13]
  Activity: 4.05%
[14]
  IC50: 1.35 µM
[15]
  inhibition: Dose-Dependent Effect
[16]
  Activity: Active
[17]
  Activity: Dose-Dependent Effect
[18]
  inhibition: Active
[19]
  inhibition: Active
[20]
  Activity: Active
[21]
  Activity: Dose-Dependent Effect
[22]
  Activity: Active
[23]
  inhibition: Dose-Dependent Effect
[24]
  Activity: Active
[25]
  inhibition: Dose-Dependent Effect
[26]
  Activity: Active
[27]
  Activity: Active
[28]
  Activity: Dose-Dependent Effect
[29]
  Activity: Dose-Dependent Effect
[30]
  Activity: Active
[31]
  Activity: Dose-Dependent Effect
[32]
  Activity: Active
[33]
  Activity: Dose-Dependent Effect
[34]
  Activity: Active
[35]
  Activity: Dose-Dependent Effect
[36]
  Activity: Active
